Where only a bound is given, the exact number is not on record here.

Data on three compounds can be found in ChEMBL document CHEMBL5385945, “An ascidian Polycarpa aurata-derived pan-inhibitor against coronaviruses targeting Mpro” (Bioorg Med Chem Lett, 2024).

Series [1] addresses Replicase polyprotein 1ab (Severe acute respiratory syndrome coronavirus 2) (UniProt P0DTD1). In words: Inhibition of SARS-CoV-2 Main protease at 2 uM relative to control.
The target in series [2] is Replicase polyprotein 1ab (Severe acute respiratory syndrome coronavirus 2, UniProt P0DTD1). In words: (§1) Inhibition of SARS-CoV-2 Main protease.
The test system of series [3] is Porcine epidemic diarrhea virus. In words: Antiviral activity against Porcine epidemic diarrhea virus infected in African green monkey Vero E6 cells assessed as inhibition of viral replication. It is filed as functional, organism-based. The note with it: Vero C1008.
Series [4] is described as follows: Selectivity ratio of CC50 for cytotoxicity against African green monkey Vero E6 cells to EC50 for antiviral activity against SARS-CoV-2 infected in African green monkey Vero E6 cells. It is filed as toxicity, cell-based, Vero C1008. The note with it: read-out: Ratio CC50/EC50.
Series [5] has as its target Replicase polyprotein 1ab (Severe acute respiratory syndrome coronavirus 2) (UniProt P0DTD1). The series is described as §1.
Another series has as its system SARS-CoV-2. In words: Antiviral activity against SARS-CoV-2 infected in African green monkey Vero E6 cells assessed as inhibition of viral replication. It is filed as functional, organism-based. The note with it: Severe acute respiratory syndrome coronavirus 2, Vero C1008.
Series [6] in a line: Inhibition of Porcine epidemic diarrhea virus Main protease.
A short description of series [7]: Cytotoxicity against African green monkey Vero E6 cells assessed as reduction of cell viability. It is filed as toxicity, cell-based, Vero C1008. The note with it: chlorocebus sabaeus.

Usually inhibition stands for the drop in the measured response relative to a control, in per cent. Usually IC50 stands for the concentration that inhibits the measured activity by half. Take `CC(=O)O[C@H](CC=C(C)C)C1=CC(=O)c2c(O)ccc(O)c2C1=O` [ACETYLSHIKONIN]: the inhibition in series [1] is above 50%. Besides, the IC50 in series [2] was 350 nM.

As a reminder, the EC50 is the concentration needed to bring the measured effect to its halfway point. Usually CC50 stands for the concentration giving 50% cytotoxicity. For `COc1ccc(-c2nc(N)n(C)c2SSc2c(-c3ccc(OC)cc3)nc(N)n2C)cc1`, the EC50 stood at 5680 nM in series [3] and 4090 nM in the series on SARS-CoV-2. Also, the inhibition in series [1] is above 50%; in series [5] it was “Dose-Dependent Effect”. Further, the selectivity ratio in series [4] is above 10. Besides, the IC50 in series [2] is 30 nM; in series [6], 120 nM. The CC50 in series [7] was found to be 50200 nM.

For the compound `CC(C)=CC[C@@H](OC(=O)CC(C)(C)O)C1=CC(=O)c2c(O)ccc(O)c2C1=O` [BETA-HYDROXYISOVALERYLSHIKONIN], in series [1], the inhibition was above 50%. Further, the midpoint of inhibition in series [2], the IC50, lay at 1020 nM.
